“Also recorded” adds a separate entry of the source.
Key:
[1] = tested on: RAW 264.7 murine immortalized macrophages; experiment: iNOS expression by immunocytochemistry (ICC), normalized to nuclei count; format: cell-based; settings: for sensitivity of iNOS response, IFN-γ versus TNF-α as second pro-inflammatory stimulus: FIG. 9
Method: (§1) All studies in this work were performed using RAW 264.7 murine immortalized macrophages (ATCC TIB-71™). Macrophages were expanded, maintained, and cultured in basal macrophage medium, which is comprised of DMEM (Thermo Fisher Scientific; Ser. No. 12/430,062), 10% FBS (Thermo Fisher Scientific; 26140079), and 1% antibiotic/antimycotic (Sigma-Aldrich; A5955).
(§2) Raw 264.7 macrophages were cultured to 70% confluence before conditioning began. Cells were conditioned by addition of medium with lipopolysaccharide (LPS; Sigma-Aldrich; L2880), interferon gamma (IFN-γ; R&D Systems; 485-MI), or interleukin (IL)-4 (PeproTech; 214-14) as indicated.
(§3) Raw 264.7 macrophages were conditioned with LPS or IFN-γ alone to quantify individual stimulus dynamic response, with LPS or IFN-γ sequentially to recover iNOS expression via orthogonal input, or with LPS […] to quantify supra-additivity and model predictive control strategy response. Pre-treatment, 24 hours of IL-4 prior to addition of LPS or IFN-γ, was used to induce an anti-inflammatory, non-nave state for experiments involving hysteretic effects.
For immunocytochemistry (ICC) experiments, macrophages were cultured in 96-well microplates. Macrophages were fixed in 4% PFA solution for 15 minutes and blocked with 5% BSA+3% goat serum in PBS for one hour. Cells were stained with α-iNOS antibody (Cell Signaling Technology; Cat. No. 13120; 1:400) and DAPI for normalization to nuclei count. Cells were imaged at 10× magnification (Zeiss Observer Z1). Image fluorescence was thresholded and total fluorescence above the threshold was normalized to nuclei number.
(§4) ICC and Western blot data were aggregated and iNOS expression for each independent experiment was normalized to the positive control with Raw264.7 cells treated with 1 μg/mL LPS for 24 hours (dynoDataLoad.m). iNOS dynamics plots were generated using the Gramm package for MATlAB. Data at sampled time points (0, 24 48, and 72 hours) were expressed as mean±SEM for separated data (N=38 for LPS single input experiments; N=8 for LPS repeated input experiments; N=8 for LPS cycled input experiments; N=32 for IFN-γ single input experiments; N=16 for IFN-γ repeated input experiments; N=16 for IFN-γ cycled input experiments). To generate interpolation curves data were smoothed using the Savitzky-Golay (sgolay) option in the curve fitting toolbox. Shaded band on curve represents root mean squared (RMS) cross validation error on smoothed data (macrophageDyn_figGenv3.m).

[2] = tested on: RAW 264.7 murine immortalized macrophages; experiment: iNOS expression by quantitative Western blot, normalized to α-tubulin; format: cell-based
Method: as §1, §2
For Western blot experiments, cells were cultured in 6-well plates then lysed using RIPA buffer with PMSF (Sigma-Aldrich), and cOmplete Mini (Sigma-Aldrich). Membranes were probed for α-tubulin (Sigma-Aldrich, Cat. No. T6074; 1:4000) and iNOS (1:1000). Membranes were imaged on a LiCor Odyssey CLx machine and quantified in ImageStudio Lite. iNOS band intensity was normalized to α-tubulin intensity to yield iNOS expression.
as §4

Raw264.7 cells = experiment: Arg1 expression for M2 polarization validation; format: cell-based, murine; settings: IL-4 pre-conditioning, FIG. 11
Method: as §3
To model Raw264.7 cells starting in a non-nave state, the inventors pre-conditioned macrophages with IL-4 for 24 hours prior to pro-inflammatory stimulation. […] Reference source not found. For each LPS concentration, iNOS expression for non-M2 polarized LPS-only treated cells were divided by iNOS expression values from cell treated with an array of IL-4 concentrations for 24 hours followed by 24 hours of LPS. The matrix of LPS and IL-4 concentrations was interpolated using 3rd order linear least squares, which provided the inverse of the continuous input concentration-dependent attenuation factor γ. […] The M2 driven attenuation of M1 response reflects the systemic immunosuppression that poses a major risk to post-traumatic or surgical injury patients.

[3] = physiologically relevant concentration range

How did the “duration of iNOS level” value ([1]; LQG controller input: 24 hours of 20 ng/ml, then 48 hours at 1 μg/ml LPS) turn out when lipopolysaccharide [LPS] was run?
Its value is “sustained this iNOS level through 48 hours, but not through 72 hours”.

What about the “iNOS expression level, of the reference” value ([1]; LQG controller input: 24 hours of 20 ng/ml, then 48 hours at 1 μg/ml LPS, read at 24 hours) of the same molecule?
Its value is 60%.

What about the “iNOS expression, peak, of normalized max iNOS” value ([1]; PI controller input: 40 ng/ml LPS for 24 hours, then 1 μg/ml until 72 hours, read at 24 hours, max = 24 hour level given 1 μg/ml LPS) of the same molecule?
The value was “approximately 70%”.

And the “iNOS expression, of max” value ([1]; PI controller input: 40 ng/ml LPS for 24 hours, then 1 μg/ml, read at 48 hours)?
Its value is 50 % max.

What about the “iNOS response above the high LPS concentration” value ([1]; above 1 μg/ml LPS) of the same molecule?
Its value is “response tapered off”.

What about the “iNOS expression at 72 hours” value ([1]; combined PI and LQG three-step LPS input strategy) of the same molecule?
Its value is “did not keep activation high at 72 hours”.

And the “iNOS expression dynamics on repeated or cycled LPS stimulation” value ([1]; multiple administrations of LPS, or 24 hours in control media before LPS re-stimulation)?
The value was “did not alter iNOS expression dynamics; also recorded: not modulated”.

And the “LPS dose-to-iNOS response relationship” value ([1]; physiologically relevant concentration range, up to 1 μg/ml LPS)?
The value was “monotonic”.

What about the “time of peak in iNOS expression” value ([2]; single administration of 1 μg/ml LPS) of the same molecule?
Its value is 24 h.

And the “decay of iNOS expression to baseline after the peak” value ([2]; single administration of 1 μg/ml LPS, LPS not removed)?
Its value is 48 h.

Which “sensitivity of iNOS response, IFN-γ versus TNF-α as second pro-inflammatory stimulus” value [1, 3] does the source give for TNF-α here?
Its value is “more sensitive to IFN-γ”.

B1: interferon gamma (protein, UniProt P01580 23-155, looked up)
Interferon gamma: HGTVIESLESLNNYFNSSGIDVEEKSLFLDIWRNWQKDGDMKILQSQIISFYLRLFEVLKDNQAISNNISVIESHLITTFFSNSKAKKDAFMSIAKFEVNNPQVQRQAFNELIRVVHQLLPESSLRKRKRSRC
notes: interferon gamma (R&D Systems; 485-MI), second orthogonal pro-inflammatory input
How did the “temporal iNOS response to IFN-γ alone” value ([1]; 100 ng/ml IFN-γ alone, FIG. 10) turn out when B1 was run?
Its value is “not sustained”.

And the “iNOS levels after prior LPS input” value ([1]; 24 hrs of LPS, then IFN-γ delayed or immediately after, FIGS. 4B-4C)?
Its value is “robustly increased iNOS levels”.

What about the “effect on LPS-induced iNOS expression (supra-additivity)” value ([1]; IFN-γ with LPS, concomitantly or in series, through 72 hours) of the same molecule?
Its value is “amplifies LPS-induced iNOS expression”.

And the “iNOS expression in IL-4 pre-treated cells, IFN-γ with LPS versus LPS alone” value ([1]; lower LPS and higher IL-4 concentrations, FIG. 5B-5C)?
Its value is “greater iNOS expression was observed”.

What about the “sensitivity of iNOS response, IFN-γ versus TNF-α as second pro-inflammatory stimulus” value [1, 3] of the same molecule?
Its value is “more sensitive to IFN-γ”.

B2: interleukin (IL)-4 (protein, UniProt P07750 21-140, looked up)
Interleukin-4: HIHGCDKNHLREIIGILNEVTGEGTPCTEMDVPNVLTATKNTTESELVCRASKVLRIFYLKHGKTPCLKKNSSVLMELQRLFRAFRCLDSSISCTMNESKSTSLKDFLESLKSIMQMDYS
notes: interleukin-4 (PeproTech; 214-14), used to induce an anti-inflammatory, non-naive state
What does the source list for B2?
iNOS expression after IL-4 pre-conditioning ([1]; IL-4 for 24 hours, then 24 hr of LPS): attenuated expression of iNOS; iNOS protein expression ([2]; IL-4 treatment, FIG. 8, n=2): not expressed; Arg1 expression (Raw264.7 cells): increased expression of Arg1

— patent US20210343422A1, “METHODS FOR DYNAMIC MODELING AND CLOSED-LOOP CONTROL OF INFLAMMATION” (Georgia Tech Research Corporation, priority 2018, published 2021)
